Assay results from PubChem BioAssay (NCI).
Where “and” joins values, the source holds several entries; their conditions need not be identical. Equal values may be shown once.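 96-well plates; 48 h exposure; 5 concentrations. Endpoints by linear interpolation between flanking doses. Not reached: highest tested concentration assigned. GI50 = concentration required for 50% inhibition of growth. TGI: concentration producing complete growth inhibition.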

Legend:
Assay in all cases: inhibition of tumour cell growth, NCI panel, 48 h
IGROV1 ovarian = test system: IGROV1 ovarian
MDA-MB-231 breast = test system: MDA-MB-231 breast
SF-539 CNS = test system: SF-539 CNS
SN12C renal = test system: SN12C renal
HT29 colon = test system: HT29 colon
OVCAR-3 ovarian = test system: OVCAR-3 ovarian
M14 melanoma = test system: M14 melanoma
MOLT-4 leukemia = test system: MOLT-4 leukemia
KM12 colon = test system: KM12 colon
HS 578T breast = test system: HS 578T breast
OVCAR-8 ovarian = test system: OVCAR-8 ovarian
RPMI-8226 leukemia = test system: RPMI-8226 leukemia
SK-MEL-28 melanoma = test system: SK-MEL-28 melanoma
U251 CNS = test system: U251 CNS
HCC-2998 colon = test system: HCC-2998 colon
NCI-H460 lung = test system: NCI-H460 lung
MCF7 breast = test system: MCF7 breast
SNB-19 CNS = test system: SNB-19 CNS
OVCAR-5 ovarian = test system: OVCAR-5 ovarian
K-562 leukemia = test system: K-562 leukemia
NCI-H23 lung = test system: NCI-H23 lung
NCI-H522 lung = test system: NCI-H522 lung
HCT-116 colon = test system: HCT-116 colon
SF-295 CNS = test system: SF-295 CNS
DU-145 prostate = test system: DU-145 prostate
CAKI-1 renal = test system: CAKI-1 renal
BT-549 breast = test system: BT-549 breast
TK-10 renal = test system: TK-10 renal
UACC-62 melanoma = test system: UACC-62 melanoma
EKVX NSCLC = test system: EKVX NSCLC
HCT-15 colon = test system: HCT-15 colon
PC-3 prostate = test system: PC-3 prostate
MDA-N = test system: MDA-N
HOP-62 NSCLC = test system: HOP-62 NSCLC
SK-MEL-2 melanoma = test system: SK-MEL-2 melanoma
UO-31 renal = test system: UO-31 renal
MALME-3M melanoma = test system: MALME-3M melanoma
A549 NSCLC = test system: A549 NSCLC
HOP-92 NSCLC = test system: HOP-92 NSCLC
UACC-257 melanoma = test system: UACC-257 melanoma
T-47D breast = test system: T-47D breast
SR leukemia = test system: SR leukemia
LOX IMVI melanoma = test system: LOX IMVI melanoma
OVCAR-4 ovarian = test system: OVCAR-4 ovarian
SK-MEL-5 melanoma = test system: SK-MEL-5 melanoma
A498 renal = test system: A498 renal
SF-268 CNS = test system: SF-268 CNS
786-0 renal = test system: 786-0 renal
SNB-75 CNS = test system: SNB-75 CNS
SW-620 colon = test system: SW-620 colon
HL-60(TB) leukemia = test system: HL-60(TB) leukemia
NCI-H226 lung = test system: NCI-H226 lung
RXF 393 renal = test system: RXF 393 renal
ACHN renal = test system: ACHN renal
SK-OV-3 ovarian = test system: SK-OV-3 ovarian
COLO 205 colon = test system: COLO 205 colon
NCI/ADR-RES ovarian = test system: NCI/ADR-RES ovarian
MDA-MB-435 = test system: MDA-MB-435
CCRF-CEM leukemia = test system: CCRF-CEM leukemia

CC(=O)OCC1OC(n2c(C)c(C)cc(C#N)c2=S)C(OC(C)=O)C(OC(C)=O)C1OC(C)=O (stereo not drawn)
TGI (IGROV1 ovarian): > 100 µM
TGI (MDA-MB-231 breast): > 100 µM
TGI (SF-539 CNS): > 100 µM
TGI (SN12C renal): > 100 µM
TGI (HT29 colon): > 100 µM
TGI (OVCAR-3 ovarian): > 100 µM
TGI (M14 melanoma): > 100 µM
TGI (MOLT-4 leukemia): > 100 µM
TGI (KM12 colon): > 100 µM
TGI (HS 578T breast): > 100 µM
TGI (OVCAR-8 ovarian): > 100 µM
TGI (RPMI-8226 leukemia): > 100 µM
TGI (SK-MEL-28 melanoma): > 100 µM
TGI (U251 CNS): > 100 µM
TGI (HCC-2998 colon): > 100 µM
TGI (NCI-H460 lung): > 100 µM
TGI (MCF7 breast): > 100 µM
TGI (SNB-19 CNS): > 100 µM
TGI (OVCAR-5 ovarian): > 100 µM
TGI (K-562 leukemia): > 100 µM
TGI (NCI-H23 lung): > 100 µM
TGI (NCI-H522 lung): > 100 µM
TGI (HCT-116 colon): > 100 µM
TGI (SF-295 CNS): > 100 µM
TGI (DU-145 prostate): > 100 µM
TGI (CAKI-1 renal): > 100 µM
TGI (BT-549 breast): > 100 µM
TGI (TK-10 renal): > 100 µM
TGI (UACC-62 melanoma): > 100 µM
TGI (EKVX NSCLC): > 100 µM
TGI (HCT-15 colon): > 100 µM
TGI (PC-3 prostate): > 100 µM
TGI (MDA-N): > 100 µM
TGI (HOP-62 NSCLC): > 100 µM
TGI (SK-MEL-2 melanoma): > 100 µM
TGI (UO-31 renal): > 100 µM
TGI (MALME-3M melanoma): > 100 µM
TGI (A549 NSCLC): > 100 µM
TGI (HOP-92 NSCLC): > 100 µM
TGI (UACC-257 melanoma): > 100 µM
TGI (T-47D breast): > 100 µM
TGI (SR leukemia): > 100 µM
TGI (LOX IMVI melanoma): > 100 µM
TGI (OVCAR-4 ovarian): > 100 µM
TGI (SK-MEL-5 melanoma): > 100 µM
TGI (A498 renal): > 100 µM
TGI (SF-268 CNS): > 100 µM
TGI (786-0 renal): > 100 µM
GI50 (SNB-75 CNS): 17 µM and > 100 µM
TGI (SNB-75 CNS): > 100 µM
TGI (SW-620 colon): > 100 µM
TGI (HL-60(TB) leukemia): > 100 µM
TGI (NCI-H226 lung): > 100 µM
TGI (RXF 393 renal): > 100 µM
TGI (ACHN renal): > 100 µM

Cc1cc(C)c2c(=N)c3ccccc3n(CCCCCCCCn3c4ccccc4c(=N)c4c(C)cc(C)nc43)c2n1
TGI (IGROV1 ovarian): 2.71 µM
TGI (SN12C renal): 2.94 µM
TGI (HT29 colon): 1.16 µM
TGI (OVCAR-3 ovarian): 3.27 µM
TGI (M14 melanoma): 3.09 µM
TGI (KM12 colon): 1.42 µM
TGI (OVCAR-8 ovarian): 3.05 µM
TGI (SK-MEL-28 melanoma): 3.02 µM
TGI (SNB-19 CNS): 1.85 µM
TGI (OVCAR-5 ovarian): 3.69 µM
TGI (K-562 leukemia): > 100 µM
TGI (HCT-116 colon): 1.59 µM
TGI (DU-145 prostate): 3.07 µM
TGI (CAKI-1 renal): 3.45 µM
TGI (BT-549 breast): 3.29 µM
TGI (TK-10 renal): 4.72 µM
TGI (SK-OV-3 ovarian): 3.18 µM
TGI (EKVX NSCLC): 2.91 µM
TGI (PC-3 prostate): 2.86 µM
TGI (MDA-N): 2.78 µM
TGI (SK-MEL-2 melanoma): 3.03 µM
TGI (UO-31 renal): 2.81 µM
TGI (MALME-3M melanoma): 3.11 µM
TGI (HOP-92 NSCLC): 2.87 µM
TGI (UACC-257 melanoma): 3.01 µM
TGI (T-47D breast): 3.23 µM
TGI (LOX IMVI melanoma): 2.61 µM
TGI (SK-MEL-5 melanoma): 3.23 µM
TGI (A498 renal): 2.94 µM
TGI (786-0 renal): 2.28 µM
TGI (SNB-75 CNS): 2.18 µM
TGI (NCI-H226 lung): 3.38 µM
TGI (ACHN renal): 2.91 µM

CCOC(=O)/C(C(N)=O)=C(\O)C(=O)/C=C(\O)c1ccc(Cl)cc1
TGI (IGROV1 ovarian): 36.2 µM
TGI (MDA-MB-231 breast): 32.2 µM
TGI (SN12C renal): 32.2 µM
TGI (HT29 colon): 41.4 µM
TGI (OVCAR-3 ovarian): 66.4 µM
TGI (M14 melanoma): 48.3 µM
TGI (MOLT-4 leukemia): 40.6 µM
TGI (KM12 colon): 36.9 µM
TGI (HS 578T breast): > 100 µM
TGI (OVCAR-8 ovarian): 31.7 µM
TGI (RPMI-8226 leukemia): 44.8 µM
TGI (SK-MEL-28 melanoma): 63.2 µM
TGI (U251 CNS): 29.1 µM
TGI (NCI-H460 lung): 31.5 µM
TGI (MCF7 breast): 62.4 µM
TGI (SNB-19 CNS): > 100 µM
TGI (OVCAR-5 ovarian): 54.3 µM
TGI (NCI-H23 lung): 33.6 µM
TGI (NCI-H522 lung): 34.3 µM
TGI (HCT-116 colon): 28.7 µM
TGI (SF-295 CNS): > 100 µM
TGI (DU-145 prostate): 35.8 µM
TGI (CAKI-1 renal): 64 µM
TGI (BT-549 breast): 33.6 µM
TGI (COLO 205 colon): 32.6 µM
TGI (TK-10 renal): 26 µM
TGI (SK-OV-3 ovarian): > 100 µM
TGI (UACC-62 melanoma): 43.1 µM
TGI (EKVX NSCLC): 58.3 µM
TGI (HCT-15 colon): 34.8 µM
TGI (PC-3 prostate): 38.1 µM
TGI (MDA-N): 38.5 µM
TGI (HOP-62 NSCLC): 60.7 µM
TGI (SK-MEL-2 melanoma): 34.4 µM
TGI (UO-31 renal): 33.4 µM
TGI (MALME-3M melanoma): 45.1 µM
TGI (A549 NSCLC): > 100 µM
TGI (HOP-92 NSCLC): 53.9 µM
TGI (UACC-257 melanoma): 32.2 µM
TGI (T-47D breast): 47.9 µM
TGI (SR leukemia): 44.5 µM
TGI (LOX IMVI melanoma): 31 µM
TGI (OVCAR-4 ovarian): > 100 µM
TGI (SK-MEL-5 melanoma): 36.8 µM
TGI (A498 renal): > 100 µM
TGI (SF-268 CNS): 59.9 µM
TGI (786-0 renal): 32.2 µM
TGI (NCI/ADR-RES ovarian): 45 µM
TGI (MDA-MB-435): 57.7 µM
TGI (SNB-75 CNS): 31 µM
TGI (SW-620 colon): 50.1 µM
TGI (NCI-H226 lung): 48.8 µM
TGI (RXF 393 renal): 32.2 µM
TGI (ACHN renal): 39.7 µM
TGI (CCRF-CEM leukemia): 24.4 µM

NCCCn1c(Cl)nc2ccccc21
TGI (IGROV1 ovarian): > 100 µM
TGI (MDA-MB-231 breast): > 100 µM
TGI (SN12C renal): > 100 µM
TGI (HT29 colon): > 100 µM
TGI (OVCAR-3 ovarian): > 100 µM
TGI (M14 melanoma): > 100 µM
TGI (MOLT-4 leukemia): > 100 µM
TGI (KM12 colon): > 100 µM
TGI (HS 578T breast): > 100 µM
TGI (OVCAR-8 ovarian): > 100 µM
TGI (RPMI-8226 leukemia): > 100 µM
TGI (SK-MEL-28 melanoma): > 100 µM
TGI (U251 CNS): > 100 µM
TGI (HCC-2998 colon): > 100 µM
TGI (NCI-H460 lung): > 100 µM
TGI (MCF7 breast): > 100 µM
TGI (SNB-19 CNS): > 100 µM
TGI (OVCAR-5 ovarian): > 100 µM
TGI (K-562 leukemia): > 100 µM
TGI (NCI-H23 lung): > 100 µM
TGI (NCI-H522 lung): > 100 µM
TGI (HCT-116 colon): > 100 µM
TGI (SF-295 CNS): > 100 µM
TGI (DU-145 prostate): > 100 µM
TGI (CAKI-1 renal): > 100 µM
TGI (BT-549 breast): > 100 µM
TGI (COLO 205 colon): > 100 µM
TGI (SK-OV-3 ovarian): > 100 µM
TGI (UACC-62 melanoma): > 100 µM
TGI (EKVX NSCLC): > 100 µM
TGI (HCT-15 colon): > 100 µM
TGI (PC-3 prostate): > 100 µM
TGI (MDA-N): > 100 µM
TGI (HOP-62 NSCLC): > 100 µM
TGI (SK-MEL-2 melanoma): > 100 µM
TGI (UO-31 renal): > 100 µM
TGI (MALME-3M melanoma): > 100 µM
TGI (A549 NSCLC): > 100 µM
TGI (T-47D breast): > 100 µM
TGI (SR leukemia): > 100 µM
TGI (LOX IMVI melanoma): > 100 µM
TGI (OVCAR-4 ovarian): > 100 µM
TGI (SK-MEL-5 melanoma): > 100 µM
TGI (A498 renal): > 100 µM
TGI (SF-268 CNS): > 100 µM
TGI (786-0 renal): > 100 µM
TGI (NCI/ADR-RES ovarian): > 100 µM
TGI (MDA-MB-435): > 100 µM
TGI (SNB-75 CNS): > 100 µM
TGI (SW-620 colon): > 100 µM
TGI (HL-60(TB) leukemia): > 100 µM
TGI (NCI-H226 lung): > 100 µM
TGI (RXF 393 renal): > 100 µM
TGI (ACHN renal): > 100 µM
TGI (CCRF-CEM leukemia): > 100 µM
